# Measurements taken from patent US20080193619A1, “Use of Fullerence C60 as an Oil Stabilizer” (UNI PHARMA HOLDING AS, priority 2005, published 2008).
# Columns and labels:
# cellular membranes = test: In vitro experiments: cellular respiration and cellular membranes; type: cell-based
# [1] = In vitro experiments: cytotoxicity and hepatotoxicity; type: cell-based; conditions: concentrations up to 100 mM in water
# [2] = In vitro experiments: antioxidant activity
# [3] = In vitro experiments: blood fibrillation
# [4] = Organoleptic testing (taste and smell) of stabilized salmon oil; conditions: salmon oil with the additive, organoleptic test
# Protocol: With basis in salmon oil as a nutritional supplement, organoleptic characteristics (determination of the quality of the oil by taste and smell) are also of importance. Standardized methods for organoleptic testing were utilized: one drop of salmon oil was placed on the arm and applied in a thin layer by means of a piece of glass. After one minute the quality of the oil could be determined by taste and smell. Five different individuals were tested, once per week, to obtain independent results. […] Both smell and taste was satisfactory at this point in time, and better for fullerene, witch kept well for 600 days, than for rosemary, witch only kept for 300 days.
# [5] = Storage (shelf life) test of salmon oil stabilized with antioxidant, degree of oxidation in fatty acids; parameters: degree of oxidation in fatty acids: unit not given here; conditions: for degree of oxidation in fatty acids: fullerene C60 0.001%, rosemary 0.1%
# Protocol: FIG. 2. Shelf life tests for salmon oil stabilized with fullerene or rosemary. The results are given as the change in the oxidation level of fatty acids in the oil. The antioxidants rosemary and fullerene were present at 0.1% and 0.001% by weight, respectively.
# Research on storage of salmon oil was carried out at temperatures of 25° C. and 5° C. during the time period from Jun. 11, 2003 to Nov. 10, 2004 (17 months). The quality of the rosemary and fullerene C60 as antioxidants in salmon oil was studied in parallel during the entire duration of the experiment.
# The concentration of the two chosen antioxidants used in the experiment were obtained by an addition of 0.1% rosemary (the same concentration used in the products UNIC Omega-3 and AniMega) and 0.001% fullerene C60.
# Standard methods of defining the degree of oxidation in fatty acids were used during selected time periods during the storage test. FIG. 2. presents data from a storage temperature of 5° C.
# [6] = In vivo experiments: toxicity, immunogenicity, allergenicity; conditions: dosages up to 25 mg/kg (0.0025% by weight) in aqueous solution
# [7] = concentrations up to 100 mM in water
smiles,measurement,setting,value
c12c3c4c5c1c1c6c7c2c2c8c3c3c9c4c4c%10c5c5c1c1c6c6c%11c7c2c2c7c8c3c3c8c9c4c4c9c%10c5c5c1c1c6c6c%11c2c2c7c3c3c8c4c4c9c5c1c1c6c2c3c41 [fullerene C60],inhibition of cellular respiration,cellular membranes; [7],does not inhibit cellular respiration
same,inhibition of membrane catalytic activity,cellular membranes; [7],does not inhibit cellular respiration or inhibition of membrane catalytic activity
same,stabilization of cellular membranes,cellular membranes; stability during unfavourable conditions,stabilizes cellular membranes
same,cytotoxicity,[1],not cytotoxic
same,hepatotoxicity,[1],not cytotoxic or hepatoxic
same,"antioxidant activity compared with ionol, vitamin E and beta-carotene",[2],"greater than ionol, vitamin E, and beta-carotene"
same,effect on blood fibrillation,[3],no bearing on blood fibrillation
same,time the oil kept (smell and taste),[4],600 days
same,keeping time of stabilized fish oil,[5]; fish oil stabilized with the antioxidant,600 days
same,degree of oxidation in fatty acids,"[5]; salmon oil, 5 C., day 0 (11.06)",0.00036
same,degree of oxidation in fatty acids,"[5]; salmon oil, 5 C., day 14 (25.06)",0.00083
same,degree of oxidation in fatty acids,"[5]; salmon oil, 5 C., day 81 (8.09)",0.0010
same,degree of oxidation in fatty acids,"[5]; salmon oil, 5 C., day 95 (22.09)",0.00095
same,degree of oxidation in fatty acids,"[5]; salmon oil, 5 C., day 109 (6.10)",0.0014
same,degree of oxidation in fatty acids,"[5]; salmon oil, 5 C., day 123 (20.10)",0.0012
same,degree of oxidation in fatty acids,"[5]; salmon oil, 5 C., day 185 (21.12)",0.0023
same,degree of oxidation in fatty acids,"[5]; salmon oil, 5 C., day 200 (05.01)",0.0027
same,degree of oxidation in fatty acids,"[5]; salmon oil, 5 C., day 214 (19.01)",0.0028
same,degree of oxidation in fatty acids,"[5]; salmon oil, 5 C., day 228 (02.02)",0.0028
same,degree of oxidation in fatty acids,"[5]; salmon oil, 5 C., day 242 (16.02)",0.0030
same,degree of oxidation in fatty acids,"[5]; salmon oil, 5 C., day 256 (2.03)",0.0030
same,degree of oxidation in fatty acids,"[5]; salmon oil, 5 C., day 270 (16.03)",0.0031
same,degree of oxidation in fatty acids,"[5]; salmon oil, 5 C., day 284 (30.03)",0.0033
same,degree of oxidation in fatty acids,"[5]; salmon oil, 5 C., day 298 (13.04)",0.0037
same,degree of oxidation in fatty acids,"[5]; salmon oil, 5 C., day 312 (27.04)",0.0039
same,degree of oxidation in fatty acids,"[5]; salmon oil, 5 C., day 326 (11.05)",0.0040
same,degree of oxidation in fatty acids,"[5]; salmon oil, 5 C., day 340 (25.05)",0.0043
same,degree of oxidation in fatty acids,"[5]; salmon oil, 5 C., day 354 (8.06)",0.0046
same,degree of oxidation in fatty acids,"[5]; salmon oil, 5 C., day 368 (22.06)",0.0048
same,degree of oxidation in fatty acids,"[5]; salmon oil, 5 C., day 372 (06.07)",0.0050
same,degree of oxidation in fatty acids,"[5]; salmon oil, 5 C., day 386 (20.07)",0.0052
same,degree of oxidation in fatty acids,"[5]; salmon oil, 5 C., day 414 (15.08)",0.0054
same,degree of oxidation in fatty acids,"[5]; salmon oil, 5 C., day 428 (29.08)",0.0055
same,degree of oxidation in fatty acids,"[5]; salmon oil, 5 C., day 442 (12.09)",0.0058
same,degree of oxidation in fatty acids,"[5]; salmon oil, 5 C., day 456 (26.09)",0.0061
same,degree of oxidation in fatty acids,"[5]; salmon oil, 5 C., day 470 (10.10)",0.0065
same,degree of oxidation in fatty acids,"[5]; salmon oil, 5 C., day 484 (24.10)",0.0066
same,degree of oxidation in fatty acids,"[5]; salmon oil, 25 C., day 0 (11.06)",0.00036
same,degree of oxidation in fatty acids,"[5]; salmon oil, 25 C., day 14 (25.06)",0.00076
same,degree of oxidation in fatty acids,"[5]; salmon oil, 25 C., day 81 (8.09)",0.0020
same,degree of oxidation in fatty acids,"[5]; salmon oil, 25 C., day 95 (22.09)",0.0031
same,degree of oxidation in fatty acids,"[5]; salmon oil, 25 C., day 109 (6.10)",0.0090
same,degree of oxidation in fatty acids,"[5]; salmon oil, 25 C., day 123 (20.10)",0.0015
same,degree of oxidation in fatty acids,"[5]; salmon oil, 25 C., day 185 (21.12)",0.012
same,degree of oxidation in fatty acids,"[5]; salmon oil, 25 C., day 200 (05.01)",0.015
same,degree of oxidation in fatty acids,"[5]; salmon oil, 25 C., day 214 (19.01)",0.022
same,degree of oxidation in fatty acids,"[5]; salmon oil, 25 C., day 228 (02.02)",0.034
same,degree of oxidation in fatty acids,"[5]; salmon oil, 25 C., day 242 (16.02)",0.037
same,degree of oxidation in fatty acids,"[5]; salmon oil, 25 C., day 256 (2.03)",0.038
same,degree of oxidation in fatty acids,"[5]; salmon oil, 25 C., day 270 (16.03)",0.040
same,degree of oxidation in fatty acids,"[5]; salmon oil, 25 C., day 284 (30.03)",0.041
same,degree of oxidation in fatty acids,"[5]; salmon oil, 25 C., day 298 (13.04)",0.044
same,degree of oxidation in fatty acids,"[5]; salmon oil, 25 C., day 312 (27.04)",0.047
same,degree of oxidation in fatty acids,"[5]; salmon oil, 25 C., day 326 (11.05)",0.049
same,degree of oxidation in fatty acids,"[5]; salmon oil, 25 C., day 340 (25.05)",0.054
same,degree of oxidation in fatty acids,"[5]; salmon oil, 25 C., day 354 (8.06)",0.059
same,degree of oxidation in fatty acids,"[5]; salmon oil, 25 C., day 368 (22.06)",0.063
same,degree of oxidation in fatty acids,"[5]; salmon oil, 25 C., day 372 (06.07)",0.066
same,degree of oxidation in fatty acids,"[5]; salmon oil, 25 C., day 386 (20.07)",0.068
same,degree of oxidation in fatty acids,"[5]; salmon oil, 25 C., day 414 (15.08)",0.070
same,degree of oxidation in fatty acids,"[5]; salmon oil, 25 C., day 428 (29.08)",0.072
same,degree of oxidation in fatty acids,"[5]; salmon oil, 25 C., day 442 (12.09)",0.080
same,degree of oxidation in fatty acids,"[5]; salmon oil, 25 C., day 456 (26.09)",0.085
same,degree of oxidation in fatty acids,"[5]; salmon oil, 25 C., day 470 (10.10)",0.088
same,degree of oxidation in fatty acids,"[5]; salmon oil, 25 C., day 484 (24.10)",0.089
same,effectiveness as additive (antioxidant) compared with rosemary,"[5]; salmon oil, temperature of 5 C",more effective additive than rosemary
same,allergenicity in vivo,[6],"not toxic, immunogenic, or an allergen"
same,immunogenicity in vivo,[6],"not toxic, immunogenic"
same,toxicity in vivo,[6],not toxic
